Experimental data reported in US5536645A, “Nutritive medium for the culture of microorganism” (priority 1993, dated 1996).
Where two headings read alike, the source gives them in different places.

Key:
Format in all cases: cell-based
[1] = system: K. pneumoniae; test: Equivalent MIC of antibiotics in VITEK cards, gram-negative bacteria (Table 3); conditions: for MIC: Klebsiella pneumoniae, 12 h
Protocol: (§1) With the determination of the sensitivity to antibiotics in mind, a suspension of 0.5 MF (Mac Farland) in physiological water was prepared from bacterial colonies selected in Petri dishes, reading being carried out on an ATB 1550 densitometer marketed by BIOMERIEUX (ATB trade mark). The suspension obtained was respectively diluted to 1/100th in the medium of the invention and Mueller-Hinton medium. VITEK cards (VITEK trade mark) containing different antibiotics at 10 concentrations were filled in vacuo into a VITEK apparatus marketed by BIOMERIEUX-VITEK. The cards were incubated for 12 hours in a VITEK incubator/reader marketed by BIOMERIEUX-VITEK. The growth kinetics were visualized and interpreted and an equivalent MIC was determined (equivalent MIC: equivalent minimum inhibitory concentration, that is to say the smallest concentration for which no bacterial growth is detected by the apparatus).
(§2) IST refers to the medium of the invention and MH signifies Mueller-Hinton medium.
(§3) S, I and R respectively signify "sensitive", "intermediate" and "resistant" with reference to the critical concentrations defined by the NCCLS (National Committee for Clinical Laboratory Standards).

[2] = system: P. aeruginosa; test: as above; conditions: for MIC: Pseudomonas aeruginosa, 12 h, read-out: Equivalent MIC
Protocol: as §1, §2, §3

[3] = system: S. marcescens; test: as above; conditions: for MIC: Serratia marcescens, 12 h, read-out: Equivalent MIC
Protocol: as §1, §2, §3

[4] = system: E. faecalis; test: Equivalent MIC of antibiotics in VITEK cards, gram-positive bacteria (Table 4); conditions: for MIC: Enterococcus faecalis, 12 h
Protocol: as §1, §2
(§4) *A range of concentration, of ratio 2, was tested for each antibiotic in
(§5) each of the abovementioned concentration margins.
as §3

[5] = system: S. aureus; test: microbe, parasite or virus in culture; conditions: for MIC: Staphylococcus aureus, read-out: Equivalent MIC
Protocol: as §1, §2, §4, §5, §3

[6] = system: S. epidermidis; test: microbe, parasite or virus in culture; conditions: for MIC: Staphylococcus epidermidis, 12 h, read-out: Equivalent MIC
Protocol: as §1, §2, §4, §5, §3

CCN1CCN(C(=O)N[C@@H](C(=O)N[C@@H]2C(=O)N3[C@@H]2SC(C)(C)[C@@H]3C(=O)O)c2ccccc2)C(=O)C1=O [piperacillin]
NCCLS Category ([1]; AP 14, MH medium): R
NCCLS Category ([1]; CDC 2174, IST medium): S
NCCLS Category ([1]; CDC 2174, MH medium): S
NCCLS Category ([1]; CDC 2182, IST medium): S
NCCLS Category ([1]; CDC 2182, MH medium): I
MIC ([1]; AP 14, IST medium): 64 µg/mL
MIC ([1]; AP 14, MH medium): 256 µg/mL
MIC ([1]; CDC 2174, IST medium): 8 µg/mL
MIC ([1]; CDC 2174, MH medium): 8 µg/mL
MIC ([1]; CDC 2182, IST medium): 16 µg/mL
MIC ([1]; CDC 2182, MH medium): 32 µg/mL
NCCLS Category ([2]; AP 8, IST medium): S
NCCLS Category ([2]; AP 8, MH medium): S
NCCLS Category ([2]; AP 13, IST medium): S
NCCLS Category ([2]; AP 13, MH medium): S
MIC ([2]; AP 8, IST medium): 4 µg/mL
MIC ([2]; AP 8, MH medium): 4 µg/mL
MIC ([2]; AP 13, IST medium): 8 to 16 µg/mL
MIC ([2]; AP 13, MH medium): 16 µg/mL
NCCLS Category ([3]; CDC 2021, IST medium): S
NCCLS Category ([3]; CDC 2021, MH medium): S
NCCLS Category ([3]; CDC 2162, IST medium): R
NCCLS Category ([3]; CDC 2162, MH medium): R
MIC ([3]; CDC 2021, IST medium): 2 µg/mL
MIC ([3]; CDC 2021, MH medium): 2 µg/mL
MIC ([3]; CDC 2162, IST medium): > 256 µg/mL
MIC ([3]; CDC 2162, MH medium): > 256 µg/mL

CN[C@H](CC(C)C)C(=O)N[C@H]1C(=O)N[C@@H](CC(N)=O)C(=O)N[C@H]2C(=O)N[C@H]3C(=O)N[C@H](C(=O)N[C@H](C(=O)O)c4cc(O)cc(O)c4-c4cc3ccc4O)[C@H](O)c3ccc(c(Cl)c3)Oc3cc2cc(c3O[C@@H]2O[C@H](CO)[C@@H](O)[C@H](O)[C@H]2O[C@H]2C[C@](C)(N)[C@H](O)[C@H](C)O2)Oc2ccc(cc2Cl)[C@H]1O [vancomycin]
NCCLS Category ([4]; CDC 2017, IST medium): I
NCCLS Category ([4]; CDC 2017, MH medium): I
NCCLS Category ([4]; CDC 2225, IST medium): S
NCCLS Category ([4]; CDC 2225, MH medium): S
NCCLS Category ([4]; CDC 2230, IST medium): S
NCCLS Category ([4]; CDC 2230, MH medium): S
MIC ([4]; CDC 2017, IST medium): 8 µg/mL
MIC ([4]; CDC 2017, MH medium): 16 µg/mL
MIC ([4]; CDC 2225, IST medium): 4 µg/mL
MIC ([4]; CDC 2225, MH medium): 4 µg/mL
MIC ([4]; CDC 2230, IST medium): 1 µg/mL
MIC ([4]; CDC 2230, MH medium): 1 to 2 µg/mL
NCCLS Category ([5]; ATCC 29213, IST medium): S
NCCLS Category ([5]; ATCC 29213, MH medium): S
NCCLS Category ([5]; CDC 2194, IST medium): S
NCCLS Category ([5]; CDC 2194, MH medium): S
NCCLS Category ([5]; CDC 2215, IST medium): S
NCCLS Category ([5]; CDC 2215, MH medium): S
MIC ([5]; 12 h, CDC 2194, IST medium): 2 µg/mL
MIC ([5]; 12 h, CDC 2194, MH medium): 1 µg/mL
MIC ([5]; 12 h, CDC 2215, IST medium): 2 µg/mL
MIC ([5]; 12 h, CDC 2215, MH medium): 1 µg/mL
MIC ([5]; ATCC29213, 12 h, ATCC 29213, IST medium): 2 µg/mL
MIC ([5]; ATCC29213, 12 h, ATCC 29213, MH medium): 2 µg/mL
NCCLS Category ([6]; CDC 2024, IST medium): S
NCCLS Category ([6]; CDC 2024, MH medium): S
NCCLS Category ([6]; CDC 2105, IST medium): S
NCCLS Category ([6]; CDC 2105, MH medium): S
NCCLS Category ([6]; CDC 2234, IST medium): S
NCCLS Category ([6]; CDC 2234, MH medium): S
MIC ([6]; CDC 2024, IST medium): 4 µg/mL
MIC ([6]; CDC 2024, MH medium): 4 µg/mL
MIC ([6]; CDC 2105, IST medium): 4 µg/mL
MIC ([6]; CDC 2105, MH medium): 2 µg/mL
MIC ([6]; CDC 2234, IST medium): 2 µg/mL
MIC ([6]; CDC 2234, MH medium): 2 µg/mL

gentamicin
Equivalent MIC ([1]; CDC 2177, IST medium): 0.5 µg/mL
NCCLS Category ([1]; CDC 2177, IST medium): S
Equivalent MIC ([1]; CDC 2177, MH medium): 0.25 µg/mL
NCCLS Category ([1]; CDC 2177, MH medium): S
Equivalent MIC ([1]; CDC 2249, IST medium): 8 µg/mL
NCCLS Category ([1]; CDC 2249, IST medium): I
Equivalent MIC ([1]; CDC 2249, MH medium): 8 µg/mL
NCCLS Category ([1]; CDC 2249, MH medium): I
Equivalent MIC ([1]; CDC 2279, IST medium): 4 µg/mL
NCCLS Category ([1]; CDC 2279, IST medium): S
Equivalent MIC ([1]; CDC 2279, MH medium): 4 µg/mL
NCCLS Category ([1]; CDC 2279, MH medium): S
Equivalent MIC ([2]; CDC 2009, IST medium): 16 to 32 µg/mL
NCCLS Category ([2]; CDC 2009, IST medium): R
Equivalent MIC ([2]; CDC 2009, MH medium): 32 µg/mL
NCCLS Category ([2]; CDC 2009, MH medium): R
Equivalent MIC ([2]; CDC 2239, IST medium): 2 µg/mL
NCCLS Category ([2]; CDC 2239, IST medium): S
Equivalent MIC ([2]; CDC 2239, MH medium): 2 µg/mL
NCCLS Category ([2]; CDC 2239, MH medium): S
Equivalent MIC ([2]; CDC 2257, IST medium): 0.5 to 1 µg/mL
NCCLS Category ([2]; CDC 2257, IST medium): S
Equivalent MIC ([2]; CDC 2257, MH medium): 0.5 µg/mL
NCCLS Category ([2]; CDC 2257, MH medium): S
